Data reported in publication PMC6882365, “Directed evolution of the PcaV allosteric transcription factor to generate a biosensor for aromatic aldehydes” (Journal of Biological Engineering, 2019).
Where a chain is given by its changes, count along the chain named.

What was measured:
[1] = target: T1, Van2 (PcaV mutant) (Streptomyces coelicolor, UniProt Q9XAM6, I110V/M113S/N114A); experiment: cell-based; details: read-out: E. coli RARE eGFP derepression reporter, 2.5 mM
T1 construct: gene SCO6704

[2] = target: T2, PcaV (Streptomyces coelicolor, UniProt Q9XAM6); experiment: E. coli PcaV/PPV-eGFP derepression reporter, dose response; assay type: cell-based
T2 construct: gene SCO6704

[3] = target: T3, PcaV N114A (Streptomyces coelicolor, UniProt Q9XAM6, N114A); experiment: cell-based; details: read-out: Max/Min (2.5 mM induction) / PCA
T3 construct: gene SCO6704

[4] = target: T4, PcaV I110V (Streptomyces coelicolor, UniProt Q9XAM6, I110V); experiment: cell-based; details: read-out: Max/Min (2.5 mM induction) / PCA
T4 construct: gene SCO6704

[5] = target: T5, Van2 (PcaV mutant) (Streptomyces coelicolor, UniProt Q9XAM6, I110V/M113S/N114A); experiment: EMSA titration ([…]), disruption of the Van2-PV DNA complex; no response in cells; assay type: biochemical
T5 construct: gene SCO6704; His-TEV tag-cleaved purified protein, homodimer
T5 sequence (Q9XAM6 1-154 I110V/M113S/N114A): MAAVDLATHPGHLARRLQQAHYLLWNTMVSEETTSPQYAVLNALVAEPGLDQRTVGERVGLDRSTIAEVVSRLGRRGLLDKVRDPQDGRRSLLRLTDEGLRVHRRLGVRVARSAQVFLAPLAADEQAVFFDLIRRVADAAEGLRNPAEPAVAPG

[6] = target: PcaV allosteric transcription factor from Streptomyces coelicolor (Streptomyces coelicolor); experiment: SEC-MALS; 0.75 mL at 1.5 mg/mL loaded on Superdex 10/300 GL; in the absence of the effector
[7] = target: Van2 aTF (PcaV I110V M113S N114A) (Streptomyces coelicolor); experiment: as above
[8] = target: T6, Van2 (Streptomyces coelicolor, UniProt Q9XAM6 1-154, I110V;M113S;N114A); experiment: SPR; no effector; 9.4-600 nM protein; SPR: 10 mM Hepes, 150 mM NaCl, pH 7.4 (temperature not stated); EMSA: 50 mM Tris-HCl, 50 mM KCl, 5 mM MgCl2, 1 mM EDTA, 5% glycerol, 0.1 ug poly(dI-dC), 1 mM DTT, 30 C 20 min (+30 min with ligand); details: protein: recombinant; tags: N-terminal His-TEV, removed by TEV protease; chain copies: 2; label: 5' biotin on strand 1; blunt
T6 sequence: T5 sequence (Q9XAM6 1-154 I110V/M113S/N114A)

[9] = target: T7, PcaV (Streptomyces coelicolor, UniProt Q9XAM6 1-154); experiment: EMSA; no effector; 250 nM protein, 500 pM probe; SPR: 10 mM Hepes, 150 mM NaCl, pH 7.4 (temperature not stated); EMSA: 50 mM Tris-HCl, 50 mM KCl, 5 mM MgCl2, 1 mM EDTA, 5% glycerol, 0.1 ug poly(dI-dC), 1 mM DTT, 30 C 20 min (+30 min with ligand); details: protein: recombinant; tags: N-terminal His-TEV, removed by TEV protease; chain copies: 2; label: 5' IRD700 on both strands; blunt
T7 sequence: T5 sequence (Q9XAM6 1-154 I110V/M113S/N114A) with V110I, S113M, A114N

[10] = target: T6, Van2; experiment: EMSA; no effector; 500 nM protein, 500 pM probe; SPR: 10 mM Hepes, 150 mM NaCl, pH 7.4 (temperature not stated); EMSA: 50 mM Tris-HCl, 50 mM KCl, 5 mM MgCl2, 1 mM EDTA, 5% glycerol, 0.1 ug poly(dI-dC), 1 mM DTT, 30 C 20 min (+30 min with ligand); details: protein: recombinant; tags: N-terminal His-TEV, removed by TEV protease; chain copies: 2; label: 5' IRD700 on both strands; blunt

How did the fold induction at 2500 µM [1] turn out when `O=Cc1ccccc1O` [2-hydroxybenzaldehyde] was run?
The fold induction at 2500 µM was greater than 6.

How did the fold induction at 2500 µM [1] turn out when `O=Cc1ccc(O)c(O)c1` [3,4-dihydroxybenzaldehyde] was run?
Its fold induction at 2500 µM is greater than 6.

With `O=C(O)c1cccc(O)c1` [3HB, 3-hydroxybenzoic acid] as the molecule, how does the “E. coli PcaV/PPV-eGFP derepression reporter, dose response” value [2] read?
Its value is 3-hydroxybenzoic acid (3HB) and 4-hydroxybenzoic acid (4HB), as observed by fitting the dose response curves.

`Cc1cc(C=O)ccc1O` [4-hydroxy-3-methylbenzaldehyde] was tested. Which fold induction at 2500 µM [1] did it give?
The fold induction at 2500 µM was greater than 6.

For `O=C(O)c1ccc(O)cc1` [4HB, 4-hydroxybenzoic acid], which “E. coli PcaV/PPV-eGFP derepression reporter, dose response” value [2] is on record?
Its value is 3-hydroxybenzoic acid (3HB) and 4-hydroxybenzoic acid (4HB), as observed by fitting the dose response curves.

With `O=C(O)c1ccc(O)c(O)c1` [PCA, 3,4-dihydroxybenzoic acid] as the molecule, how does the fold induction at 2500 µM [3] read?
The fold induction at 2500 µM was 18.

And the fold induction at 2500 µM [4]?
The fold induction at 2500 µM was 304.

What about the “EMSA titration (2.5-12.5 mM), disruption of the Van2-PV DNA complex; no response” value [5] of the same molecule?
Its value is “Van2 responds to vanillin but is still responsive to PCA in contradiction with the observed in vivo biosensor performance”.

For “PcaV allosteric transcription factor from Streptomyces coelicolor (natural protein)”, which stoichiometry N [6] is on record?
The stoichiometry N was 2.

Van2 aTF (PcaV I110V M113S N114A) was tested. Which stoichiometry N [7] did it give?
The stoichiometry N was 2.

B1: PV Probe Bio (dsDNA)
DNA 1: TTGACTATACTCAGTGCCCTGACTATGATACT
DNA 2: AGTATCATAGTCAGGGCACTGAGTATAGTCAA
With B1 as the molecule, how does the Kd [8] read?
The Kd was 86.7 nM.

B2: PV Probe (IR700 duplex) (dsDNA)
DNA 1: B1 DNA 1
DNA 2: B1 DNA 2
Does B2 bind [9]?
Result: binds

B3: Rnd Probe (IR700 duplex) (dsDNA)
DNA 1: GAGTTAGAGTACGCGTTAAACACTTCACAGAT
DNA 2: ATCTGTGAAGTGTTTAACGCGTACTCTAACTC
Does B3 bind [10]?
Result: no binding
